These results are taken from ChEMBL document CHEMBL6087436, “The novel β-hairpin antimicrobial peptide D-G(RF)3 demonstrates exceptional antibacterial efficacy” (Eur J Med Chem, 2025).

As usually defined, the MIC is the least concentration at which growth counts as inhibited.

Molecules are shown by their SMILES. Converted amounts (≈) assume the structure as drawn. Where a SMILES comes first, the peptide text is derived from it. Bridges are numbered along the chain shown (N, C = ends). [ ]: non-standard residue; d: D form. The star is where a group is joined. Ileψ(thiazoline)Cys = CC[C@H](C)[C@H](N)C1=N[C@H](C(=O)*)CS1; dOrn = NCCC[C@@H](N)C(=O)O

One data set deals with Staphylococcus aureus. The experiment in a line: Antibacterial activity against Staphylococcus aureus ATCC 25923 assessed as inhibition of bacterial growth incubated for 18 hrs by microbroth dilution assay. Type of data set: functional. Background: Broth dilution looks for growth in wells or tubes with falling amounts of substance.
The subject of the next data set is Bacillus subtilis. The experiment in a line: Antibacterial activity against Bacillus subtilis ATCC 23857 assessed as inhibition of bacterial growth incubated for 18 hrs by microbroth dilution assay. Type of data set: functional.
The test system of data set [1] is Staphylococcus epidermidis. Put plainly: Antibacterial activity against Staphylococcus epidermidis ATCC 12228 assessed as inhibition of bacterial growth incubated for 18 hrs by microbroth dilution assay. Type of data set: functional.
A further data set deals with Pseudomonas aeruginosa. The experiment in a line: Antibacterial activity against Pseudomonas aeruginosa ATCC 27853 assessed as inhibition of bacterial growth incubated for 18 hrs by microbroth dilution assay. Format: functional.
The test system of the next data set is Klebsiella pneumoniae. The experiment in a line: Antibacterial activity against Klebsiella pneumoniae ATCC 700603 assessed as inhibition of bacterial growth incubated for 18 hrs by microbroth dilution assay. Type of data set: functional.
The subject of another data set is Escherichia coli. Put plainly: Antibacterial activity against Escherichia coli ATCC 25922 assessed as inhibition of bacterial growth incubated for 18 hrs by microbroth dilution assay. Type of data set: functional.
Data set [2] is described as follows: Retention time of the compound by RP-HPLC analysis. Format: physicochemical.
A short description of data set [3]: Hemolytic activity in Kunming mouse erythrocytes assessed as hemolysis incubated for 1 hr by multimode reader analysis. Type of data set: toxicity, cell-based. As to conditions: erythrocyte.

Take `NC[C@H]1O[C@H](O[C@H]2[C@H](O)[C@@H](O[C@H]3O[C@H](CO)[C@@H](O)[C@H](N)[C@H]3O)[C@H](N)C[C@@H]2N)[C@H](O)[C@@H](O)[C@@H]1O` [KANAMYCIN]: the MIC was under 1 µM with Staphylococcus aureus; under 1 µM with Bacillus subtilis; over 128 µM in data set [1]; over 128 µM in the data set with Pseudomonas aeruginosa; 64 µM (≈ 31 µg/mL) in the data set on Klebsiella pneumoniae; 8 µM (≈ 3.88 µg/mL) with Escherichia coli.
Turning to `N=C(N)NCCC[C@H](NC(=O)[C@H](Cc1ccccc1)NC(=O)[C@H](CCCNC(=N)N)NC(=O)[C@H](Cc1ccccc1)NC(=O)[C@H](CCCNC(=N)N)NC(=O)CNC(=O)[C@H]1CCCN1C(=O)[C@H](CCCNC(=N)N)NC(=O)[C@H](Cc1ccccc1)NC(=O)[C@H](CCCNC(=N)N)NC(=O)[C@H](Cc1ccccc1)NC(=O)[C@@H](N)CCCNC(=N)N)C(N)=O`, the MIC with Staphylococcus aureus turned out to be 16 µM (≈ 27.2 µg/mL); with Bacillus subtilis, 4 µM (≈ 6.79 µg/mL); in data set [1], 4 µM (≈ 6.79 µg/mL); in the data set on Pseudomonas aeruginosa, 16 µM (≈ 27.2 µg/mL); with Klebsiella pneumoniae, 16 µM (≈ 27.2 µg/mL); in the data set with Escherichia coli, 8 µM (≈ 13.6 µg/mL). Further, the Retention_time in data set [2] came out at 12.628 min. In addition, the MHC10 in data set [3] was over 256 µM.
As for `CC[C@H](C)[C@H](N)C1=N[C@H](C(=O)N[C@@H](CC(C)C)C(=O)N[C@H](CCC(=O)O)C(=O)N[C@H](C(=O)N[C@H]2CCCCNC(=O)[C@H](CC(N)=O)NC(=O)[C@@H](CC(=O)O)NC(=O)[C@H](Cc3cnc[nH]3)NC(=O)[C@@H](Cc3ccccc3)NC(=O)[C@H]([C@@H](C)CC)NC(=O)[C@@H](CCCN)NC2=O)[C@@H](C)CC)CS1` [BACITRACIN] ({Ileψ(thiazoline)Cys}-L[dE]IK[dOrn]I[dF]H[dD]N; lactam 4-C), the MIC is 32 µM (≈ 45.5 µg/mL) in the data set with Staphylococcus aureus; over 128 µM in the data set with Bacillus subtilis; 16 µM (≈ 22.8 µg/mL) in data set [1]; over 128 µM with Pseudomonas aeruginosa; over 128 µM in the data set on Klebsiella pneumoniae; over 128 µM with Escherichia coli.
For `N=C(N)NCCC[C@H](NC(=O)CNC(=O)[C@H]1CCCN1C(=O)[C@H](CCCNC(=N)N)NC(=O)[C@H](Cc1ccccc1)NC(=O)[C@H](CCCNC(=N)N)NC(=O)[C@@H](N)Cc1ccccc1)C(=O)N[C@@H](Cc1ccccc1)C(=O)N[C@@H](CCCNC(=N)N)C(=O)N[C@@H](Cc1ccccc1)C(N)=O`, the minimal inhibitory concentration (MIC) was 32 µM (≈ 44.3 µg/mL) with Staphylococcus aureus; 8 µM (≈ 11.1 µg/mL) in the data set on Bacillus subtilis; 16 µM (≈ 22.2 µg/mL) in data set [1]; 4 µM (≈ 5.54 µg/mL) in the data set on Pseudomonas aeruginosa; over 128 µM in the data set with Klebsiella pneumoniae; 64 µM (≈ 88.6 µg/mL) with Escherichia coli. This compound also displayed a Retention_time in data set [2] of 13.555 min. For the same compound, the MHC10 in data set [3] was over 256 µM.
Consider `CO[C@H]1/C=C/O[C@@]2(C)Oc3c(C)c(O)c4c(O)c(c(/C=N/N5CCN(C)CC5)c(O)c4c3C2=O)NC(=O)/C(C)=C\C=C\[C@H](C)[C@H](O)[C@@H](C)[C@@H](O)[C@@H](C)[C@H](OC(C)=O)[C@@H]1C` [RIFAMPIN], for which the minimal inhibitory concentration (MIC) was under 1 µM with Staphylococcus aureus; under 1 µM in the data set on Bacillus subtilis; under 1 µM in data set [1]; 32 µM (≈ 26.3 µg/mL) in the data set on Pseudomonas aeruginosa; 64 µM (≈ 52.7 µg/mL) with Klebsiella pneumoniae; 16 µM (≈ 13.2 µg/mL) with Escherichia coli.
Take `C[C@@H](O)[C@H]1C(=O)N2C(C(=O)O)=C(SCCNC=N)C[C@H]12` [IMIPENEM ANHYDROUS]: the MIC is under 1 µM in the data set on Staphylococcus aureus; under 1 µM in the data set on Bacillus subtilis; under 1 µM in data set [1]; 16 µM (≈ 4.79 µg/mL) in the data set on Pseudomonas aeruginosa; under 1 µM in the data set with Klebsiella pneumoniae; under 1 µM with Escherichia coli.
On to `CC[C@H](C)[C@H](NC(=O)[C@H](CCCNC(=N)N)NC(=O)[C@@H](NC(=O)[C@H](CCCNC(=N)N)NC(=O)CNC(=O)[C@H]1CCCN1C(=O)[C@H](CCCNC(=N)N)NC(=O)[C@@H](NC(=O)[C@H](CCCNC(=N)N)NC(=O)[C@@H](NC(=O)[C@@H](N)CCCNC(=N)N)[C@@H](C)CC)[C@@H](C)CC)[C@@H](C)CC)C(=O)N[C@@H](CCCNC(=N)N)C(N)=O`, for which the minimal inhibitory concentration (MIC) in the data set with Staphylococcus aureus worked out at 32 µM (≈ 50 µg/mL); in the data set with Bacillus subtilis it was 4 µM (≈ 6.24 µg/mL); in data set [1], 8 µM (≈ 12.5 µg/mL); with Pseudomonas aeruginosa, 16 µM (≈ 25 µg/mL); in the data set with Klebsiella pneumoniae, 32 µM (≈ 50 µg/mL); in the data set on Escherichia coli, 16 µM (≈ 25 µg/mL). For the same compound, the Retention_time in data set [2] came out at 11.367 min. Further, in data set [3], the MHC10 was over 256 µM.
